US20040071762A1, “Diagnostic test for schizophrenia, using niacin” (Scotia Holdings PLC, priority 1996, published 2004)
Where two headings read alike, the source gives them in different places.

What was measured:
[1] = system: skin; experiment: Topical niacin skin patch test, redness (flushing) scored 0-3; format: in vivo, human; settings: for Percentage responding with absent [0] reddening of the skin / Percentage responding with marked [3] reddening of the skin / Percentage responding with mild [1] reddening of the skin / Percentage responding with moderate [2] reddening of the skin: 5 minutes
From the text: The test involves the topical application of niacin solutions, preferably in a carrier such as gauze, cotton, wax or appropriate fibre or absorbent material, to the skin of any part of the body, but conveniently the forearm or upper arm. A range of solutions may be used from 0.00001M to 1 molar. A single concentration may be chosen and used but desirably use is made of a range of steps varying from two to twenty. We have found it convenient is to use a range of four solutions of 0.1, 0.01, 0.001 and 0.0001M, e.g. 0.05 ml of each, but other concentrations within the range and other numbers of steps can be used as found appropriate, both in diagnosis and in monitoring as discussed above. […] The wells or depressions may be sealed by another plastic or other strip which isolates them from the atmosphere and which can be removed immediately prior to testing. The strip with the open wells can then be applied to the skin surface with light pressure and removed after an appropriate time which may be e.g. 0.5 minutes up to 10 or 15 minutes but preferably 3 to 6 minutes.
Both of these effects are due to vasodilatation of the small blood vessels of the skin. The redness may be scored in relation to the adjacent unaffected skin on an appropriate scale which can be either “present” or “absent”, or can be semi-quantitative, such as mild, moderate or marked, or can be made fully quantitative by use of a spectrophotometer or other appropriate instrument e.g. a blood flow meter. The oedema can likewise be scored as present or absent or can be scored semi-quantitatively or quantitatively.
We have also used a scoring system in which the degree of redness under each patch was scored as 0=no change, 1=mild redness, 2=moderate redness and 3=marked redness. When the test is used commercially, sample colour charts may show how the test can be used with individuals of varying skin colour. With particularly dark-skinned individuals, oedema or a measurement of skin surface temperature or heat loss may be required to give the best results.

[2] = system: skin; settings: 100-300 mg given orally, cited from earlier work
[3] = normal controls (n=22), topical niacin 0.000. M
[4] = normal controls (n=22), topical niacin 0.001 M
[5] = normal controls (n=22), topical niacin 0.01 M
[6] = normal controls (n=22), topical niacin 0.1 M
[7] = schizophrenics (n=38), topical niacin 0.000. M
[8] = schizophrenics (n=38), topical niacin 0.001 M
[9] = schizophrenics (n=38), topical niacin 0.01 M
[10] = schizophrenics (n=38), topical niacin 0.1 M

## O=C(O)c1cccnc1 [Niacin, nicotinic acid]
[1]; depressives, expected by analogy with oral niacin
  Response to topical niacin test in depressives: the same as for normal individuals
[1]; [3]
  Percentage responding with absent [0] reddening of the skin: 35.3%
  Percentage responding with marked [3] reddening of the skin: 17.6%
  Percentage responding with mild [1] reddening of the skin: 29.4%
  Percentage responding with moderate [2] reddening of the skin: 17.6%
[1]; [4]
  Percentage responding with absent [0] reddening of the skin: 31.8%
  Percentage responding with marked [3] reddening of the skin: 18.2%
  Percentage responding with mild [1] reddening of the skin: 9.1%
  Percentage responding with moderate [2] reddening of the skin: 40.9%
[1]; [5]
  Percentage responding with absent [0] reddening of the skin: 9.1%
  Percentage responding with marked [3] reddening of the skin: 31.8%
  Percentage responding with mild [1] reddening of the skin: 13.6%
  Percentage responding with moderate [2] reddening of the skin: 45.5%
[1]; [6]
  Percentage responding with absent [0] reddening of the skin: 4.5%
  Percentage responding with marked [3] reddening of the skin: 59.1%
  Percentage responding with mild [1] reddening of the skin: 9.1%
  Percentage responding with moderate [2] reddening of the skin: 27.3%
[1]; [7]
  Percentage responding with absent [0] reddening of the skin: 88.2%
  Percentage responding with marked [3] reddening of the skin: 0%
  Percentage responding with mild [1] reddening of the skin: 8.8%
  Percentage responding with moderate [2] reddening of the skin: 2.9%
[1]; [8]
  Percentage responding with absent [0] reddening of the skin: 67.6%
  Percentage responding with marked [3] reddening of the skin: 0%
  Percentage responding with mild [1] reddening of the skin: 29.4%
  Percentage responding with moderate [2] reddening of the skin: 2.9%
[1]; [9]
  Percentage responding with absent [0] reddening of the skin: 41.2%
  Percentage responding with marked [3] reddening of the skin: 0%
  Percentage responding with mild [1] reddening of the skin: 41.2%
  Percentage responding with moderate [2] reddening of the skin: 17.6%
[1]; [10]
  Percentage responding with absent [0] reddening of the skin: 13.5%
  Percentage responding with marked [3] reddening of the skin: 5.4%
  Percentage responding with mild [1] reddening of the skin: 37.8%
  Percentage responding with moderate [2] reddening of the skin: 43.2%
[2]; a substantial proportion of schizophrenics
  Flushing response to oral niacin: fail to flush
[2]; most normal individuals
  Flushing response to oral niacin: flush markedly

## NC(=O)c1cccnc1 [Nicotinamide]
[1]; form passing the skin, suitability for the topical test
  Flushing reaction in normal individuals: does not elicit the reaction
